# Results: US20250041194A1, “COMPOSITION COMPRISING GALACTINOL AND USE THEREOF” (Clariant International Ltd, priority 2021, published 2025)
# How the values were obtained:
# [1] = tested on: NHDF; assay: Cell protection against UVA irradiation, bright-field cell morphology observation; type: cell-based, human; settings: UVA 10 J/cm^2, curative, observed after 24 hours, data not shown
# Description: (§1) In the following studies, the capabilities of Gal and C-Gal to protect skin cells (NHEK and NHDF) against various stress agents such as UV irradiations (UVB and UVA), or environmental factors (humidity and temperature) were assessed.
# The same experiments as described above were repeated by using UVA irradiation on NHDF in the following condition: • “Curative” condition: Gal or C-Gal was applied after UVA irradiation (10 J/cm^2), and the morphology of the cells were observed after 24 hours.
# [2] = tested on: NHEK; assay: Cell protection against UVB irradiation, bright-field cell morphology observation; type: cell-based, human; settings: UVB 30 mJ/cm^2, preventive/curative/combined, observed after 24 hours, data not shown
# Description: as §1
# Briefly, using a bright-field imaging microscope, it was studied the effect of the UVB irradiation on NHEK's morphology in various experimental conditions in presence or not of Gal and C-Gal: • “Preventive” condition: Gal or C-Gal was applied on NHEK during 24 hours before UVB irradiation (30 mJ/cm^2), and the morphology of the cells was observed after 24 hours, • “Curative” condition: Gal or C-Gal was applied after UVB irradiation, and the morphology of the cells was observed after 24 hours, • Combined condition “preventive and curative”: Gal or C-Gal was applied before and after UVB irradiation and the morphology of the cells was observed after 24 hours.
# [3] = tested on: NHEK; assay: Cell protection against environmental stress (heat, hydric), bright-field cell morphology observation; type: cell-based, human; settings: heat stress 37 to 44° C. 30 min, hydric stress 90% to 45% relative humidity, or both, data not shown
# Description: as §1
# Finally, the effect of environmental stress on cell morphology was studied in NHEK treated with and without Gal or C-Gal (using a bright-field imaging microscope). The environmental stress applied were either a heat stress (increase in temperature from 37° C. to 44° C. during 30 min), or an hydric stress “modulation of relative humidity from 90% to 45%” or a combination of both stresses “heat plus hydric stresses”.
# [4] = tested on: normal human dermal fibroblasts (NHDF); assay: Transcriptomic study, mRNA expression by RT-qPCR (Taqman); type: cell-based; settings: 24 h treatment, vs untreated
# Description: The mRNA expression was quantified after 24 h of NHDF treatment with both Gal and C-Gal.
# mRNA extraction was realized according to the provider recommendations (Qiagen). Briefly, lysis buffer RLT-Plus was added on the cell pellet and the homogenous lysate was transferred in a column. The eluate was mixed with one volume 70° ethanol and was transferred in a pink <<RNeasy>> column. The column was washed with buffer. Elution was realized with RNase-free water and the RNA quantitation was done by D.O. 260 nm, 280 nm, 320 nm measurements (Biotek, Cytation3 & Take3 Plate) with “Nucleic Acid Quantification” software application. mRNA quality was checked using a fragment analyser (Advanced Analytical). Then, mRNA reverse transcription allowing the obtention of cDNA templates was performed on a thermal cycler (Bio-Rad). cDNA templates were used to perform the qPCR. For the transcriptomic study, it was used Biorad predesigned plates for ECM components, antioxidants genes, skin homeostasis. Then, the data generated allowed the automatic calculation using Bio-Rad CFX manager of mRNA expression fold change and p values in comparison to untreated condition.
# All data are statistically significant compared to control condition (p value <0.05).
# [5] = tested on: HSP27; assay: HSP27 protein expression by immunostaining; type: cell-based, human; settings: NHDF, 24 h treatment, basal (non stressed) condition; FIG. 5
# Description: NHDF were treated with Gal or C-Gal for 24 h (treated cells). […] Pictures were realized with a Nikon microscope (Eclipse Ti2). The quantification of HSP27 was measured by image analysis of fluorescence intensity per cell using Image J software. The statistical analysis (Dunnett) was realized with Minitab software (*p<0.05 compared to control). Results were obtained by performing three independent assays.
compound,measurement,setting,value
"OC[C@H]1O[C@H](O[C@@H]2[C@@H](O)[C@H](O)[C@@H](O)[C@H](O)[C@@H]2O)[C@H](O)[C@@H](O)[C@H]1O [Gal, 3-O-α-D-galactopyranosyl-D-myo-inositol]",cell morphology,[1],quite regular and expected cells morphology
same,cell number vs stress condition alone,[1],more cells are present
same,cell morphology,[2],quite regular and expected cells morphology
same,cell number vs stress condition alone,[2],more cells are present
same,cell morphology,[3],quite regular and expected cells morphology
same,"ECM genes and proteins expressions (COL5A1, ELN, SDC4, VCAN, LAMC2, LUM, ITGA1)","[4]; p value <0.05, FIG. 2",modulation
same,"antioxidant genes expression (NQO1, HMOX1, GPX1, G6PD)","[4]; p value <0.05, FIG. 3",modulated
same,growth factors gene expression (TGF Beta 1 and NGF),"[4]; p value <0.05, FIG. 4",upregulation
same,heat shock proteins gene expression (HSPA1A and HSP90AA),"[4]; p value <0.05, FIG. 4",upregulation
same,"mRNA expressions of PCNA, MKi67 and GADD45A (DNA repair and cell proliferation)","[4]; p value <0.05, FIG. 4",upregulation
same,HSP27 expression (fluorescence intensity per cell),[5],clear stimulation
